We go through 29 compounds from patent US12667101B2, “Picolinamide derivatives useful as agricultural fungicides” (GLOBACHEM NV, priority 2019, dated 2026).

SMILES strings stand for the structures. In brackets after ≈: the same amount, converted by molar mass.

The subject of the test is Zymoseptoria tritici. Kind of test: Fungicidal activity screen in amended agar, 96 well plates. The test is classed as cell-based. To be noted: 168 h, 1% potato dextrose agar amended to 20, 2, 0.2 and 0.02 ppm, 10,000 spores/mL, 18° C., assessed after 7 days, read-out: Zymoseptoria (EC50 ranking of fungal growth vs DMSO controls). The protocol:
Compounds were screened in 96 well plates with 10 compounds per plate. Each compound was screened using agar amended to 20, 2, 0.2 and 0.02 ppm of the test material. Proline at 50 and 10 ppm and 0.2% DMSO were used respectively as positive and negative controls. Each test concentration and standard were tested twice on a plate.
Compounds were screened against Zymoseptoria tritici. The agar used in the test was 1% potato dextrose agar. Sufficient spores were added to the appropriate agar to give 10,000 spores/mL agar.
A ×10 stock solution in 2% DMSO was produced for each dose i.e. 200, 20, 2 and 0.2 ppm, and 10 μl of this added to the appropriate wells on the plate. An equivalent amount of 2% DMSO and Proline stock at 500 and 100 ppm were added for the controls. To each well, 90 μl of the appropriate agar spore suspension was added to give the final well concentrations outlined in the first paragraph.
Plates were incubated at room temperature (18° C.) and assessed after 7 days.
The amount of fungal growth in each well was compared to the DMSO controls and scored according to the following key: • A—EC50<2 ppm • B—2≤EC50<20 • C—EC50≥20 • D—No activity detected at the highest dose tested • NT—Not tested
`COc1ccnc(C(=O)Nc2ccc3nc(Oc4cccnc4Cl)ccc3c2)c1OC(C)=O` [Example 36, 2-((2-((2-chloropyridin-3-yl)oxy)quinolin-6-yl)carbamoyl)-4-methoxypyridin-3-yl acetate]: the half-maximal effective concentration (EC50) was not below 20 µg/mL.
As for `COc1ccnc(C(=O)Nc2ccc3cc(-c4ccccc4)ccc3n2)c1O` [Example 16, 3-hydroxy-4-methoxy-N-(6-phenylquinolin-2-yl)picolinamide], the figure is 2 to 20 µg/mL (≈ 5.39 to 53.9 µM).
As for `COc1ccnc(C(=O)Nc2ccc3nc(Oc4ccccc4Cl)ccc3c2)c1O` [Example 20, N-(2-(2-chlorophenoxy)quinolin-6-yl)-3-hydroxy-4-methoxypicolinamide], the figure is not below 20 µg/mL; as for `COc1ccnc2c(=O)n(-c3ccc4nc(N(C)c5ccccc5Cl)ccc4c3)c(=S)oc12` [Example 42, 3-(2-((2-chlorophenyl)(methyl)amino)quinolin-6-yl)-8-methoxy-2-thioxo-2,3-dihydro-4H-pyrido[2,3-e][1,3]oxazin-4-one], 2 to 20 µg/mL (≈ 4.19 to 41.9 µM); as for `COc1ccnc2c(=O)n(-c3ccc4nc(Sc5ccccc5Cl)ccc4c3)c(=S)oc12` [Example 43, 3-(2-((2-chlorophenyl)thio)quinolin-6-yl)-8-methoxy-2-thioxo-2,3-dihydro-4H-pyrido[2,3-e][1,3]oxazin-4-one], not below 20 µg/mL.
For `COc1ccccc1Oc1ccc2cc(NC(=O)c3nccc(OC)c3O)ccc2n1` [Example 22, 3-hydroxy-4-methoxy-N-(2-(2-methoxyphenoxy)quinolin-6-yl)picolinamide], the 50% effective concentration (EC50) was not below 20 µg/mL.
As for `COc1ccnc(C(=O)Nc2ccc3cc(Br)ccc3n2)c1O` [Example 15, N-(6-bromoquinolin-2-yl)-3-hydroxy-4-methoxypicolinamide], the EC50 fell in the range of 2 to 20 µg/mL (≈ 5.34 to 53.4 µM).
`CCCOc1ccc2cc(NC(=O)c3nccc(OC)c3O)ccc2n1` [Example 3, 3-hydroxy-4-methoxy-N-(2-propoxyquinolin-6-yl)picolinamide]: the EC50 is less than 2 µg/mL.
As for `COc1ccnc(C(=O)Nc2ccc3nc(Sc4ccc(F)cc4)ccc3c2)c1OC(C)=O` [Example 29, 2-((2-((4-fluorophenyl)thio)quinolin-6-yl)carbamoyl)-4-methoxypyridin-3-yl acetate], the figure is not below 20 µg/mL; as for `CCCCCc1cc(Oc2ccc(F)cc2)nc2ccc(NC(=O)c3nccc(OC)c3O)cc12` [Example 21, N-(2-(4-fluorophenoxy)-4-pentylquinolin-6-yl)-3-hydroxy-4-methoxypicolinamide], not below 20 µg/mL; as for `COc1ccnc(C(=O)Nc2ccc3nc(Oc4cccnc4Cl)ccc3c2)c1O` [Example 27, N-(2-((2-chloropyridin-3-yl)oxy)quinolin-6-yl)-3-hydroxy-4-methoxypicolinamide], not below 20 µg/mL.
As for `COc1ccnc(C(=O)Nc2ccc3nc(N(C)c4cccnc4Cl)ccc3c2)c1OC(C)=O` [Example 34, 2-((2-((2-chloropyridin-3-yl)(methyl)amino)quinolin-6-yl)carbamoyl)-4-methoxypyridin-3-yl acetate], the figure is not below 20 µg/mL; as for `COc1ccnc(C(=O)Nc2ccc3ncc(Cc4ccccc4)cc3c2)c1O` [Example 13, N-(3-benzylquinolin-6-yl)-3-hydroxy-4-methoxypicolinamide], not below 20 µg/mL.
For `COc1ccnc2c(=O)n(-c3ccc4nc(Oc5ccccc5Cl)ccc4c3)c(=S)oc12` [Example 40, 3-(2-(2-chlorophenoxy)quinolin-6-yl)-8-methoxy-2-thioxo-2,3-dihydro-4H-pyrido[2,3-e][1,3]oxazin-4-one], the EC50 is less than 2 µg/mL.
Consider `COc1ccnc(C(=O)Nc2ccc3nc(Oc4ccccc4Cl)ccc3c2)c1OC(C)=O` [Example 30, 2-((2-(2-chlorophenoxy)quinolin-6-yl)carbamoyl)-4-methoxypyridin-3-yl acetate], for which the EC50 was in the range of 2 to 20 µg/mL.
As for `COc1ccnc(C(=O)Nc2ccc3nc(OCCC(C)C)ccc3c2)c1O` [Example 7, 3-hydroxy-N-(2-(isopentyloxy)quinolin-6-yl)-4-methoxypicolinamide], the figure is less than 2 µg/mL; as for `COc1ccnc(C(=O)Nc2ccc3nc(N(C)c4ccc(F)cc4)ccc3c2)c1O` [Example 8, N-(2-((4-fluorophenyl)(methyl)amino)quinolin-6-yl)-3-hydroxy-4-methoxypicolinamide], less than 2 µg/mL.
As for `COc1ccccc1Oc1ccc2cc(-n3c(=S)oc4c(OC)ccnc4c3=O)ccc2n1` [Example 41, 8-methoxy-3-(2-(2-methoxyphenoxy)quinolin-6-yl)-2-thioxo-2,3-dihydro-4H-pyrido[2,3-e][1,3]oxazin-4-one], the figure is not below 20 µg/mL; as for `COc1ccnc(C(=O)Nc2ccc3nc(Sc4cccnc4Cl)ccc3c2)c1O` [Example 28, N-(2-((2-chloropyridin-3-yl)thio)quinolin-6-yl)-3-hydroxy-4-methoxypicolinamide], not below 20 µg/mL; as for `COc1ccnc2c(=O)n(-c3ccc4nc(Oc5cccnc5Cl)ccc4c3)c(=S)oc12` [Example 44, 3-(2-((2-chloropyridin-3-yl)oxy)quinolin-6-yl)-8-methoxy-2-thioxo-2,3-dihydro-4H-pyrido[2,3-e][1,3]oxazin-4-one], not below 20 µg/mL.
As for `COc1ccnc(C(=O)Nc2ccc3nc(Sc4cccnc4Cl)ccc3c2)c1OC(C)=O` [Example 35, 2-((2-((2-chloropyridin-3-yl)thio)quinolin-6-yl)carbamoyl)-4-methoxypyridin-3-yl acetate], the figure is 2 to 20 µg/mL; as for `COc1ccnc(C(=O)Nc2ccc3nc(Oc4ccc(F)cc4)ccc3c2)c1OC(C)=O` [Example 19, 2-((2-(4-fluorophenoxy)quinolin-6-yl)carbamoyl)-4-methoxypyridin-3-yl acetate], less than 2 µg/mL.
With `COc1ccnc(C(=O)Nc2ccc3nc(OC(C)C)ccc3c2)c1OC(C)=O` [Example 47, 2-((2-isopropoxyquinolin-6-yl)carbamoyl)-4-methoxypyridin-3-yl acetate], the EC50 is less than 2 µg/mL.
As for `COc1ccnc(C(=O)Nc2ccc3nc(N(C)c4ccccc4Cl)ccc3c2)c1OC(C)=O` [Example 32, 2-((2-((2-chlorophenyl)(methyl)amino)quinolin-6-yl)carbamoyl)-4-methoxypyridin-3-yl acetate], the figure is less than 2 µg/mL; as for `CCOc1ccc2cc(NC(=O)c3nccc(OC)c3O)ccc2n1` [Example 1, N-(2-ethoxyquinolin-6-yl)-3-hydroxy-4-methoxypicolinamide], 2 to 20 µg/mL (≈ 5.89 to 58.9 µM).
Consider `COc1ccnc(C(=O)Nc2ccc3nc(N(C)c4cccnc4Cl)ccc3c2)c1O` [Example 25, N-(2-((2-chloropyridin-3-yl)(methyl)amino)quinolin-6-yl)-3-hydroxy-4-methoxypicolinamide], for which the EC50 is 2 to 20 µg/mL (≈ 4.59 to 45.9 µM).
As for `CCC(C)Oc1ccc2cc(NC(=O)c3nccc(OC)c3O)ccc2n1` (centres unmarked) [Example 11, N-(2-(sec-butoxy)quinolin-6-yl)-3-hydroxy-4-methoxypicolinamide], the figure is less than 2 µg/mL; as for `COc1ccnc(C(=O)Nc2ccc3nc(Sc4ccccc4Cl)ccc3c2)c1O` [Example 26, N-(2-((2-chlorophenyl)thio)quinolin-6-yl)-3-hydroxy-4-methoxypicolinamide], less than 2 µg/mL; as for `COc1ccnc2c(=O)n(-c3ccc4nc(Sc5cccnc5Cl)ccc4c3)c(=S)oc12` [Example 45, 3-(2-((2-chloropyridin-3-yl)thio)quinolin-6-yl)-8-methoxy-2-thioxo-2,3-dihydro-4H-pyrido[2,3-e][1,3]oxazin-4-one], not below 20 µg/mL.
